# From publication PMC12470768, “Mentha rotundifolia, a Source of Amoebicidal Agents Against Naegleria fowleri” (International Journal of Molecular Sciences, 2025)
# Assays:
# [1] = system: N. fowleri ATCC® 30215™ cyst stage; assay: In vitro cysticidal activity against N. fowleri cysts (alamarBlue), strain ATCC 30215; type: cell-based; settings: Naegleria fowleri, ATCC30215, mean ± SD
# Protocol: Following the assays against trophozoites, the compounds were further evaluated for their activity against the cyst stage of N. fowleri (ATCC® 30808™ and ATCC® 30215™). To induce cyst formation, the trophozoites were centrifuged, resuspended in MYAS medium, and incubated under slight agitation at room temperature for 10 days. After this, mature cysts were harvested, pretreated with 0.5% SDS, and seeded in a 96-well microtiter plate at 2 × 10^5 cells/mL. The drugs were tested in serial dilutions, and after 24 h of incubation at 37 °C, the medium was replaced with fresh Bactocasitone medium. The colorimetric alamarBlue® assay was used to assess cyst viability, with 10 µL of reagent added to each well. The plates were incubated for an additional 72 h at 37 °C, and fluorescence was measured using the EnSpire® Multimode Plate Reader (PerkinElmer, Madrid, Spain). The results were compared to a negative control (untreated cysts) and a positive control (amphotericin B and miltefosine). The IC50 values were determined through nonlinear regression analysis.
# [2] = In vitro cytotoxicity on murine macrophages (alamarBlue); type: cell-based; settings: mouse, J774A.1 murine macrophage cell line (ATCC TIB-67), mean ± SD
# Protocol: The in vitro activity of the tested compounds against Naegleria fowleri trophozoites was evaluated using two clinical strains obtained from the American Type Culture Collection (ATCC® 30808™ and ATCC® 30215™). Trophozoites were cultured axenically at 37 °C in 2% (w/v) Bactocasitone medium (Thermo Fisher Scientific, Madrid, Spain), supplemented with 10% (v/v) fetal bovine serum (FBS), […] penicillin G sodium salt, and 0.5 mg/mL streptomycin sulfate (Sigma-Aldrich, Madrid, Spain). For cytotoxicity assessment, murine macrophages from the J774A.1 cell line (ATCC® TIB-67) were cultured in Dulbecco’s Modified Eagle’s Medium (DMEM) supplemented with 10% (v/v) FBS and 10 μg/mL gentamicin sulfate (Sigma-Aldrich, Madrid, Spain). The macrophages were maintained at 37 °C in a 5% CO2 atmosphere.
# The cytotoxicity of the compounds was assessed against the murine macrophage cell line J774A.1 (ATCC® TIB-67™). Cells were maintained at 37 °C in a 5% CO2 atmosphere in DMEM medium. In the assay, different concentrations of the compounds were added to the cells in a 96-well microtiter plate, and after 24 h of incubation, 10 µL of alamarBlue® reagent was added. The fluorescence intensity was measured using the EnSpire® Multimode Plate Reader (PerkinElmer, Madrid, Spain). The cytotoxic concentration required to reduce cell viability by 50% (CC50) was determined through nonlinear regression analysis using GraphPad Prism 9 software. The results were compared with those obtained against trophozoites to calculate the selectivity index (S.I.) for N. fowleri.
# [3] = system: N. fowleri trophozoites; assay: Intracellular ATP levels (CellTiter-Glo); type: cell-based, Naegleria fowleri; settings: treated with IC90, 24 h; negative control set as 100% ATP
# Protocol: (§1) To evaluate the induction of PCD, N. fowleri strains ATCC® 30808™ and ATCC® 30215™ were treated with the IC90 concentration of the compounds 7 and 10 for 24 h at 37 °C. After incubation, specific fluorescent markers were used to assess various detectable metabolic events, following the manufacturers’ instructions for each assay. Amphotericin B was used as a positive control, and untreated amoebae served as a negative control. Fluorescence imaging was performed using EVOS M5000 Cell Imaging System (Life Technologies, Madrid, Spain) and confocal microscope Leica DMI 4000 B equipped with Leica Application Suite X software version 3.5.5.19976 and Leica HC PL APO 63x/1.40 OIL CS2 objective (Leica Microsystems, Wetzlar, Germany). The fluorescence obtained was expressed as mean ± standard deviation from at least three independent experiments.
# Adenosine triphosphate (ATP) production was quantified using the CellTiter-Glo® luminescent cell viability assay (Promega, Madrid, Spain). Amoebae were treated with the compounds, and an equal volume of reagent was added per well. Following cell lysis, the emitted luminescence, which is directly proportional to ATP content, was measured using the EnSpire® Multimode Plate Reader (PerkinElmer, Madrid, Spain). […]
# [4] = system: N. fowleri trophozoites; assay: Intracellular reactive oxygen species (CellROX Deep Red); type: cell-based, Naegleria fowleri; settings: IC90, 24 h; compound 7 on ATCC 30808 (p < 0.05), compound 10 on ATCC 30215 (p < 0.01)
# Protocol: as §1
# The oxidative stress induced by the generation of ROS in N. fowleri was evaluated using the CellROX® Deep Red reagent (Invitrogen, Thermo Fisher Scientific, Madrid, Spain). Following incubation, cells were stained with the dye at a final concentration of 5 μM and then incubated for an additional 30 min. The reagent enters cells in response to elevated ROS levels, emitting red fluorescence at approximately 644/665 nm. Increased fluorescence intensity indicated higher levels of ROS accumulation, reflecting elevated oxidative stress in the treated cells.
# [5] = system: N. fowleri trophozoites; assay: Cytoskeletal integrity (phalloidin-TRITC actin staining); type: cell-based, Naegleria fowleri; settings: IC90; compound 7 on ATCC 30808, compound 10 on ATCC 30215
# Protocol: as §1
# Cytoskeletal disruption in treated amoebae was evaluated by staining with phalloidin conjugated to tetramethylrhodamine B isothiocyanate (phalloidin- TRITC), which binds specifically to filamentous actin, emitting red fluorescence. DAPI staining was used in parallel to visualize nuclear DNA, emitting blue fluorescence. […] Following washing with PBS, fluorescence images were captured with a 63x oil immersion objective.
smiles,measurement,setting,value
"COC(=O)[C@]12CC[C@@H](C)[C@H](C)C1C1=CCC3[C@@]4(C)CC[C@H](OC(=O)CCC(=O)O)C(C)(C)C4CC[C@@]3(C)[C@]1(C)CC2 (some centres unmarked) [Compound 7, 3-O-(Hemisuccinyl)-methyl ursolate]",IC50,[1],28 ± 1.59 µM
same,CC50 at 24 h,[2],> 175 µM
same,inhibition of ATP levels compared to the negative control,[3],89.5%
same,intracellular ROS accumulation (CellROX Deep Red),[4],significantly increased ROS
same,actin cytoskeleton (phalloidin-TRITC),[5],reduced actin signal intensity
